# Test results taken from patent US20190365906A1, “RANDOM COPOLYMER THERAPEUTIC AGENT CARRIERS AND ASSEMBLIES THEREOF” (University of Washington through its Center for …, priority 2013, published 2019).
# System: HeLa cells
# Experiment: Live-cell fluorescence microscopy of intracellular distribution of transferrin-polymer conjugates
# Type: cell-based, human
# Conditions: 1 hour at 37° C.
# Description: The intracellular distribution of fluorescently labeled transferrin-polymer conjugates was evaluated in cells using live-cell fluorescence microscopy. Cells were seeded in chamber slides at a concentration of 5000 cells/well. After allowing the cells adhere for 18 hours the media was replaced with fresh media containing the appropriate concentration of the copolymer-transferrin conjugates. Thirty minutes prior to imaging Hoechst (5 μg/mL) was added to the media and allowed to incubate at 37° C. After this time, the media was carefully aspirated and replaced with PBS. Immediately prior to imaging individual wells were aspirated and then treated with 2 μL of a 10 mg/mL cell mask stock in 200 μL of ice cold PBS. After 3 minutes the PBS was removed and washed three times with additional ice cold PBS. The mediChamber slides were placed on a Live-Cell Fluorescence Microscope (Nikon Ti-E) equipped with an environmental control chamber. […] After image acquisition, image stacks were deconvolved using object-based measurement software, Velocity (Perkin Elmer), to remove out-of focus fluorescence for the identification of conjugate containing compartments. To deconvolved image stacks, point spread functions were calculated for the green, blue, and deep red channel and applied using 25 iterations to reach a near 100 percent confidence interval. […]
substance,measurement,value
fluorescently (ALEXA 488) labeled Transferrin,intracellular localisation of fluorescence,strongly localized within endosomes/lysosomes
